Source: US20210228549A1 (Biohaven Therapeutics Ltd., priority 2015, published 2021)
Like-named read-outs stand apart in the source and are kept apart here. Blank lines part the entries; values can stand above or below the molecule they belong to.

What was measured:
[1] = PK in fasted male Sprague Dawley rats, IV administration of prodrug; format: in vivo
Procedure: (§1) Blood samples were collected at pre-determined time points including a 0 h time point and usually between 7 and 8 additional time points not exceeding a 24 h period.
(§2) Plasma samples were extracted and analyzed using the methods described in Plasma Sample Extraction and Analysis. All data are expressed as ng/mL of the free base. Samples that were below the limit of quantification (0.5 ng/mL) were not used in the calculation of averages.
Pharmacokinetic parameters were calculated from the time course of the plasma concentrations. Pharmacokinetic parameters were determined with Phoenix Winnonlin (v6.3) software using a non-compartmental model. The maximum plasma concentration (Cmax) and time to the maximum plasma concentration (Tmax) of the compound of the disclosure were observed from the data. The area under the concentration-time curve (AUC) of the compound of the disclosure was calculated using the trapezoidal formula with calculation to the last quantifiable data point, and to infinity if applicable. Plasma half-life (t1/2) was calculated from 0.693/slope of the terminal elimination phase. Mean residence time, MRT, was calculated by dividing the area under the moment curve (AUMC) by the AUC. Any samples below the limit of quantitation (0.5 ng/mL) were treated as zero for pharmacokinetic data analysis. […]

[2] = PK in fasted male Sprague Dawley rats, PO administration of prodrug; format: in vivo; details: for Prodrug AUGlast, Mean: PO 5 mg/kg
Procedure: as §1, §2
Pharmacokinetic parameters were calculated from the time course of the plasma concentrations. Pharmacokinetic parameters were determined with Phoenix Winnonlin (v6.3) software using a non-compartmental model. The maximum plasma concentration (Cmax) and time to the maximum plasma concentration (Tmax) of the compound of the disclosure were observed from the data. The area under the concentration-time curve (AUC) of the compound of the disclosure was calculated using the trapezoidal formula with calculation to the last quantifiable data point, and to infinity if applicable. Plasma half-life (t1/2) was calculated from 0.693/slope of the terminal elimination phase. Mean residence time, MRT, was calculated by dividing the area under the moment curve (AUMC) by the AUC. Any samples below the limit of quantitation (0.5 ng/mL) were treated as zero for pharmacokinetic data analysis.
Plasma Sample Extraction and Analysis: Analytical stock solutions (1.00 mg/mL of the free compound of the disclosure) were prepared in DMSO. Standards were prepared in diluted matrix containing 1 part 10% formic acid and 9 parts Sprague-Dawley rat plasma containing sodium heparin as the anticoagulant (pre-diluted with 1 part of 0.5M citric acid and 9 parts whole blood). Working solutions were prepared in 50:50 acetonitrile:water. Working solutions were then added to plasma to make calibration standards to final concentrations of 1000, 500, 100, 50, 10, 5, 1, and 0.5 ng/mL. Standards contained both the test article and riluzole. Standards were treated identically to the study samples.
Sample Extraction: Plasma samples were extracted via acetonitrile precipitation on a Tomtec Quadra 96-Model 320 liquid handling system in a 96-well plate format.

Melanoma C8161 cells = test: Inhibition of human melanoma cell xenograft growth; format: in vivo; details: C8161 xenograft in nude mice, P<0.01
Procedure: Mice were treated every day for 21 days, and tumor sizes were measured twice weekly with a Vernier caliper.

[3] = system: patients diagnosed with Alzheimer's disease of mild-to-moderate severity; details: for CDR01-Sum of Boxes, Model Estimates, Difference LSMean (SE) / ADAS-Cog Total Score, Model Estimates, Difference LSMean (SE) / Hippocampal Volume Change, Model Estimates, Difference LSMean (SE): placebo vs troriluzole; for Hippocampal Volume Change, Model Estimates, LSMean (SE) / Hippocampal Volume Change, Model Estimates, Difference LSMean (SE) / Hippocampal Volume Change, Analysis Value, Mean (SD) / Hippocampal Volume Change, Analysis Value, Median: volumetric MRI;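 as to all read-outs here: multicenter parallel-group study, AD severity graded by Mini-Mental State Examination score (mild 20–24, moderate 14–19)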
Procedure: This is a phase 2 multi-center, randomized, double blind, placebo-controlled, parallel group study in patients with mild to moderate Alzheimer's disease.
Participants will be randomized to one of two groups: 280 mg of BHV-4157 or placebo. […] Treatment duration is 48 weeks (12 months). There is a screening period of up to 42 days and a 4-week post-treatment observation period.
The CDR-SOB (Hughes, Berg, Danziger, Coben, & Martin, 1982) is a validated composite rating of cognition and everyday functioning used in longitudinal AD research which incorporates both informant input and direct assessment of performance. It assesses through semi structured interview 3 cognitive domains including memory, orientation, and judgement/problem solving and 3 everyday functional domains including community affairs, home and hobbies and personal care. There are 5 levels of impairment from none CDR=0 to severe CDR=3. The individual domain scores are added to create a sum of the box scores.

[4] = system: patients with Stage III and IV melanoma; details: after only 14 days of treatment, cited from earlier work
[5] = fasted male Sprague Dawley rats, prodrug in plasma
[6] = Mild AD Patients Only, Week 48, troriluzole 280 mg once daily, N 62
[7] = Mild AD Patients Only, Week 48, troriluzole 280 mg once daily, N 65
[8] = mild-to-moderate AD, Week 48, troriluzole 280 mg once daily, N 118
[9] = mild-to-moderate AD, Week 48, troriluzole 280 mg once daily, N 119
[10] = Mild AD Patients Only, Week 48, troriluzole 280 mg once daily, N 48
[11] = mild-to-moderate AD, Week 48, troriluzole 280 mg once daily, N 87

Half life on conversion to Riluzole [1]: moderate to long half life
bioavailability ([2]; rat, plasma, fasted male Sprague Dawley rats, PO 14 mg/kg, prodrug, read-out: Example 125 % F (bioavailability)): 26%
AUC(0-inf) ([2]; rat, fasted male Sprague Dawley rats, PO 14 mg/kg, prodrug in plasma, read-out: Example 125 AUCinf, Mean): 2290 ng·h/mL
AUC(0-t) ([2]; rat, fasted male Sprague Dawley rats, PO 14 mg/kg, prodrug in plasma, read-out: Example 125 AUClast, Mean): 2260 ng·h/mL
Cmax ([2]; rat, fasted male Sprague Dawley rats, PO 14 mg/kg, prodrug in plasma, read-out: Example 125 Cmax, Mean): 213 ng/mL
half-life ([2]; rat, fasted male Sprague Dawley rats, PO 14 mg/kg, prodrug in plasma, read-out: Example 125 t1/2, Mean (converted)): 3.8 h
Tmax ([2]; rat, fasted male Sprague Dawley rats, PO 14 mg/kg, prodrug in plasma, read-out: Example 125 tmax, Mean): 1.8 h
Half life on conversion to Riluzole ([2]; rats, oral administration): long half life
Oral bioavailability on conversion to Riluzole ([2]; rats, oral administration): high oral bioavailability
SMILES: CN(CC(=O)Nc1nc2ccc(OC(F)(F)F)cc2s1)C(=O)CNC(C)(C)C [Example 125, 2-(tert-butylamino)-N-methyl-N-(2-oxo-2-((6-(trifluoromethoxy)benzo[d]thiazol-2-yl)amino)ethyl)acetamide]
Tumor volume vs untreated or vehicle-treated controls (Melanoma C8161 cells; 4.9 mg/kg (threefold lower in molar terms) p.o. gavage every day for 21 days): significant reduction in tumor volume
Tumor volume vs untreated or vehicle-treated controls (Melanoma C8161 cells; 14.6 mg/kg (equimolar to riluzole) p.o. gavage every day for 21 days): significant reduction in tumor volume

Prodrug AUGlast, Mean [2, 5]: 0.90 ng·h/mL
SMILES: CN(CC(=O)Nc1nc2ccc(OC(F)(F)F)cc2s1)C(=O)CNC(=O)CN [Example 204, 2-Amino-N-{[methyl({[6-(trifluoromethoxy)-1,3-benzothiazol-2-yl]carbamoyl}methyl)carbamoyl]methyl}acetamide]
Safety and tolerability ([3]; 280 mg once daily, safety profile consistent with previous studies): relatively well tolerated
CDR01-Sum of Boxes, Model Estimates, LSMean (SE) ([3]; Mild AD Patients Only, Week 48, change from baseline, 95% CI (1.1, 2.2)): 1.7 (0.29)
ADAS-Cog Total Score, Model Estimates, LSMean (SE) ([3]; Mild AD Patients Only, Week 48, change from baseline, 95% CI (2.7, 5.7)): 4.2 (0.76)
CDR01-Sum of Boxes, Model Estimates, Difference LSMean (SE) ([3]; Mild AD Patients Only, Week 48, 95% CI (−1.1, 0.5), P-Value 0.4347): −0.3 (0.40)
ADAS-Cog Total Score, Model Estimates, Difference LSMean (SE) ([3]; Mild AD Patients Only, Week 48, 95% CI (−1.4, 2.7)): 0.7 (1.02)
CDR01-Sum of Boxes, Analysis Value, Mean (SD) [3, 6]: 7.1 (2.79)
CDR01-Sum of Boxes, Analysis Value, Median [3, 6]: 6.5
CDR01-Sum of Boxes, Change from Baseline, Mean (SD) [3, 6]: 1.4 (2.06)
CDR01-Sum of Boxes, Change from Baseline, Median [3, 6]: 1.0
ADAS-Cog Total Score, Analysis Value, Mean (SD) [3, 7]: 26.2 (8.22)
ADAS-Cog Total Score, Analysis Value, Median [3, 7]: 26.0
ADAS-Cog Total Score, Change from Baseline, Mean (SD) [3, 7]: 3.9 (5.90)
ADAS-Cog Total Score, Change from Baseline, Median [3, 7]: 4.0
NPI across subgroups ([3]; Week 48, only mild AD, only moderate AD, only ApoE4 positive, only ApoE4 negative patients): numerical differences of a potential benefit
ADAS-Cog11 score, difference placebo vs troriluzole ([3]; mild AD, after 48 weeks, 95% CI −1.4, 2.7, p-value=0.5233): 0.7
LS mean percent deformation change from baseline hippocampal volume ([3]; mild AD, after 48 weeks, n=48, 95% CI −1.6, −0.6, placebo −1.6%): −1.1%
LS mean change from baseline on the NPI score ([3]; mild AD, after 48 weeks, n=62, placebo 4.2 points): 2.1 points
LS mean change from baseline on the ADAS-Cog11 score ([3]; mild AD, after 48 weeks, n=65, 95% CI 2.7, 5.7, placebo 4.9 points): 4.2 points
CDR01-Sum of Boxes, Model Estimates, LSMean (SE) ([3]; mild-to-moderate AD, Week 48, change from baseline, 95% CI (1.7, 2.5)): 2.1 (0.21)
CDR01-Sum of Boxes, Model Estimates, Difference LSMean (SE) ([3]; mild-to-moderate AD, Week 48, 95% CI (−0.8, 0.3), P-Value 0.4474): −0.2 (0.28)
ADAS-Cog Total Score, Model Estimates, Difference LSMean (SE) ([3]; mild-to-moderate AD, Week 48, 95% CI (−1.8, 1.8), P-Value 0.9809): 0.0 (0.93)
CDR01-Sum of Boxes, Analysis Value, Mean (SD) [3, 8]: 8.3 (3.24)
CDR01-Sum of Boxes, Analysis Value, Median [3, 8]: 8.0
CDR01-Sum of Boxes, Change from Baseline, Mean (SD) [3, 8]: 1.9 (2.37)
CDR01-Sum of Boxes, Change from Baseline, Median [3, 8]: 2.0
ADAS-Cog Total Score, Analysis Value, Mean (SD) [3, 9]: 31.5 (10.82)
ADAS-Cog Total Score, Analysis Value, Median [3, 9]: 30.0
ADAS-Cog Total Score, Charge from Baseline, Mean (SD) [3, 9]: 0.8 (7.40)
ADAS-Cog Total Score, Charge from Baseline, Median [3, 9]: 0.0
NPI score, difference troriluzole vs placebo ([3]; mild-to-moderate AD, after 48 weeks, 95% CI −4.08, 1.10, p-value=0.258): −1.5
LS mean change from baseline on the NPI score ([3]; mild-to-moderate AD, after 48 weeks, n=120, placebo 3.8 points): 2.3 points
Hippocampal Volume Change, Model Estimates, LSMean (SE) ([3]; Mild AD Patients Only, Week 48, 95% CI (−1.6, −0.6)): −1.1 (0.27)
Hippocampal Volume Change, Model Estimates, Difference LSMean (SE) ([3]; Mild AD Patients Only, Week 48, 95% CI (−1.2, 0.3), P-Value 0.2240): −0.5 (0.38)
Hippocampal Volume Change, Analysis Value, Mean (SD) [3, 10]: −1.1 (1.61)
Hippocampal Volume Change, Analysis Value, Median [3, 10]: −0.9
Hippocampal Volume Change, Model Estimates, LSMean (SE) ([3]; mild-to-moderate AD, Week 48, 95% CI (−1.4, −0.7)): −1.1 (0.18)
Hippocampal Volume Change, Model Estimates, Difference LSMean (SE) ([3]; mild-to-moderate AD, Week 48, 95% CI (−0.6, 0.5), P-Value 0.8670): 0.0 (0.26)
Hippocampal Volume Change, Analysis Value, Mean (SD) [3, 11]: −1.1 (1.50)
Hippocampal Volume Change, Analysis Value, Median [3, 11]: −0.9

Prodrug AUGlast, Mean [2, 5]: 16.6 ng·h/mL
SMILES: CN(CC(=O)Nc1nc2ccc(OC(F)(F)F)cc2s1)C(=O)CNC1CCNCC1 [Example 216, N-methyl-2-[(piperidin-4-yl)amino]-N-({[6-(trifluoromethoxy)-1,3-benzothiazol-2-yl]carbamoyl}methyl)acetamide]

SMILES: Nc1nc2ccc(OC(F)(F)F)cc2s1 [riluzole]
Patients with clinical or radiologic evidence of tumor response ([4]; listed as Riluzole): four of 12
Patients with clinical or radiologic evidence of tumor response [4]: four of twelve
